According to patent publication US7351692B2, “Method and composition for potentiating the antipyretic action of a nonopioid analgesic” (The Board of Trustees of the University of Illinois, priority 2002, dated 2008):
Non-standard residues stand in square brackets, D forms with d. Residues, ends and D or L forms follow the SMILES beside them.

Experiments:
ETA receptor = target: T1, ETA receptor (Rattus norvegicus, UniProt P26684); settings: cited from earlier work
T1 construct: host or cells: whole animal, central (intracerebroventricular) administration
T1 sequence (P26684 21-426): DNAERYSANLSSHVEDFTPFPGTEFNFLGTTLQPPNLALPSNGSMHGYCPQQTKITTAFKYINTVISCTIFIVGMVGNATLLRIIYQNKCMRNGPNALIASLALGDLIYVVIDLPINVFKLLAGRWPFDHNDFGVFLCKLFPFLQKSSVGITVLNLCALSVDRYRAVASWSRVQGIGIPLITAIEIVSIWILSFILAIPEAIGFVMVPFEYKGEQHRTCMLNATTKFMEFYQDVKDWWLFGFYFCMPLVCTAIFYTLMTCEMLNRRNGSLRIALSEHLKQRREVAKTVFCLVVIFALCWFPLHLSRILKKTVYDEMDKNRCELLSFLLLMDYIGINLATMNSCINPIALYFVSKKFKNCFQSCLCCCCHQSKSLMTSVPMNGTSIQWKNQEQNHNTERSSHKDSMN

[1] = Measurement of body temperature (colonic temperature, telethermometer); type: in vivo; settings: for change in body temperature, drug alone: acetaminophen 300 mg/kg s.c. or BQ123 3 μg i.c.v., over 360 minutes
Procedure: (§1) Male Swiss-Webster mice weighing 25 to 30 grams (Harlan, Indianapolis, Ind.) were housed four per cage in a room having a controlled ambient temperature (23±1° C.), humidity (50±10%), and twelve-hour light/dark cycle (6:00 a.m. to 6:00 p.m.). Food and water were available ad libitum. The experiments were-performed after the mice were acclimated to this environment for at least four days.
(§2) For i.c.v. administration of the endothelin antagonist BQ123, a mouse was grasped firmly by the loose skin behind the head and the skin was pulled taut. The site of injection was 2 mm from either side of the midline drawn through the anterior base of the ears. A 27 gauge sterile hypodermic needle attached to a 10 μL sterile Hamilton syringe was inserted perpendicularly through the skull into the brain, and vehicle (sterile saline) or BQ123 was delivered to the ventricle of the mouse brain (see T. J. Haley et al., Brit. J. Pharmacol., 12(12), (1957)). BQ123 (3 μg) or vehicle was administered i.c.v. and volume of drug injection was 5 μL. Vehicle or BQ123 pretreatment was performed 30 minutes prior to administration of acetaminophen (300 mg/kg s.c.).
(§3) The mice were divided into the following four groups (N=5 in each group): group I (P+V) received vehicle (V) (saline 5 μl, i.c.v.) and placebo (P) (vehicle 100 μl/kg, s.c.); group 2 (P+BQ) received BQ123 (BQ) (3 μg. i.c.v. in a volume of 5 μl of saline) and placebo (P) (vehicle 100 μl/kg, s.c.); group 3 (A+V) received vehicle (V) (saline 5 μl, i.c.v.) and acetaminophen (A) (300 mg/kg, s.c. in a volume of 100 μl/kg); and group 4 (A+BQ) received BQ123 (BQ) (3 μg, i.c.v. in a volume of 5 μl) and acetaminophen (A) (300 mg/kg, s.c. in a volume of 100 μl/kg). Vehicle or BQ123 pretreatment was performed 30 minutes prior to administration of acetaminophen (FIG. 1).
The change in body temperature in response to acetaminophen (300 mg/kg) was determined (Bhargava, 1997). The colonic temperature of each mouse was recorded before and at various times after the injection of acetaminophen over a period of 360 minutes using a telethermometer. Body temperature data was expressed as mean±SEM.

[2] = Body weight of mice before drug and at end of experiment; type: in vivo; settings: before drug vs 7 hours after acetaminophen, acetaminophen 300 mg/kg s.c., BQ123 3 μg i.c.v.
Procedure: as §1
as §2, with “Vehicle or BQ123 pretreatment was performed 30 minutes prior to administration of acetaminophen (300 mg/kg s.c.).” left out
The body weight of all mice was measured, and no change in body weight between various groups of mice was observed (FIG. 2). Body weight was measured before administration of any drug and at the end of the experiment (i.e., 7 hours after the administration of acetaminophen).

[3] = Measurement of tail-flick latency (thermal stimulation); type: in vivo; settings: mice; for effect on tail flick latency (analgesia), drug alone: acetaminophen 300 mg/kg s.c. or BQ123 3 μg i.c.v.
Procedure: as §1, §2, §3
An analgesic response was determined by the tail flick method (C. Advocat et al., Brain Ref., 55(2), pp. 251-258 (1991); H. N. Bhargava, General Pharmacology, 28(1), pp. 61-64 (1997)). The tail flick latencies to thermal stimulation (focused light) were determined before and 30, 60, 90, 120, 180, 210, 240, 270, 300, and 360 minutes after injection of acetaminophen. The basal tail flick latency was about 2 seconds. A thermal stimulation cutoff time of 10 seconds was used to prevent damage to the tail of the animal. The analgesic response in each mouse was expressed as mean±SEM.

COX-1 = COX-1 (Homo sapiens, UniProt P23219); settings: in vitro; cited from earlier work
Sequence of COX-1 (P23219 24-599): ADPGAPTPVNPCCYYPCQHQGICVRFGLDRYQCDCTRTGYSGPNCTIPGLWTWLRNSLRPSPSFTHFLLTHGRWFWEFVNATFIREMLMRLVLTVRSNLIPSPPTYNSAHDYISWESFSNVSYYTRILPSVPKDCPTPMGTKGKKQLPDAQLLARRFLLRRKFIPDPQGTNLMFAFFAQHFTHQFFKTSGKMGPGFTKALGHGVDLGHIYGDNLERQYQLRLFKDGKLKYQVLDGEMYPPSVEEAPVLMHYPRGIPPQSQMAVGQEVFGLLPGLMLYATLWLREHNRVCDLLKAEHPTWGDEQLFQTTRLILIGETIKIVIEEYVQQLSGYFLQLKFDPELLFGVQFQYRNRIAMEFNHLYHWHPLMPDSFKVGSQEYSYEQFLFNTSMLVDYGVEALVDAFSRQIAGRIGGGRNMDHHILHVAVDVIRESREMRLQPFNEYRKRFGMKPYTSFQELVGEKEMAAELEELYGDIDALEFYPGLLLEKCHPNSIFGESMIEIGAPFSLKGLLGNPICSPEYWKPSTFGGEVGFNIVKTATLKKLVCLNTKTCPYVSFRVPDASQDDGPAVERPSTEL

[4] = acetaminophen 3900 mg/d; afebrile patients with acute stroke; cited from earlier work
prostaglandin synthesis = settings: in vivo; cited from earlier work
[5] = 4000 mg acetaminophen daily (n=20); placebo group 36.4%; p=0.014; cited from earlier work
[6] = daily dose of 6000 mg acetaminophen, suppositories, five days; cited from earlier work
COX-2 = target: T2, COX-2 (Homo sapiens, UniProt P35354); settings: in vitro; cited from earlier work
T2 sequence (P35354 18-604): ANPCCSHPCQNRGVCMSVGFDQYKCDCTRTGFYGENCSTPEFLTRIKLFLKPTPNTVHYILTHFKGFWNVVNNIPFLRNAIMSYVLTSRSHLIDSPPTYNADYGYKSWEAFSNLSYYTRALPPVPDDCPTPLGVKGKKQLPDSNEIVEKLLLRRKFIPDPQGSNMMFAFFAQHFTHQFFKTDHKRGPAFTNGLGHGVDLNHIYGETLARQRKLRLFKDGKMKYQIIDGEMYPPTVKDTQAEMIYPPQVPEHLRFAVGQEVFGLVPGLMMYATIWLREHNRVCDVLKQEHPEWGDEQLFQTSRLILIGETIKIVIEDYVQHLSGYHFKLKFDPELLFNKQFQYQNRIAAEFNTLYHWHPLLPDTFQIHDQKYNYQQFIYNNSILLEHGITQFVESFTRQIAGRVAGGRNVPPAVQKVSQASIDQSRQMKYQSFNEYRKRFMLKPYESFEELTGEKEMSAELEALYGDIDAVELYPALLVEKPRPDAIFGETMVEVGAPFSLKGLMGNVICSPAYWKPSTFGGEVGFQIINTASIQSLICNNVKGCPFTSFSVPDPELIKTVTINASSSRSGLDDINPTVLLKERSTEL

[7] = BQ123 3 μg i.c.v. 30 minutes prior to acetaminophen 300 mg/kg s.c.

SMILES	effect on BP and HR per se (ETA receptor; administered in the lateral cerebral ventricle)	effect on clonidine induced hypotension and bradycardia (ETA receptor; pretreatment)	duration of hypothermic effect of acetaminophen in BQ123 pretreated mice [1, 7]	effect of BQ123 on hypothermic effect of acetaminophen ([1]; mice, BQ123 3 μg i.c.v. 30 minutes prior to acetaminophen 300 mg/kg s.c.)	change in body temperature, drug alone ([1]; mice)	acute effect on body weight [2]	effect of BQ123 on analgesic effect of acetaminophen [3, 7]	effect on tail flick latency (analgesia), drug alone ([3]; control about 2 seconds)	inhibition of COX-1 (COX-1)	duration of hypothermia after acetaminophen ([1]; mice, acetaminophen 300 mg/kg s.c., vehicle pretreatment)	core body temperature (CBT) [4]	reduction of prostaglandin synthesis (prostaglandin synthesis)	tail flick latency reached ([3]; acetaminophen 300 mg/kg s.c., cutoff time 10 seconds, control about 2 seconds)	duration of significant increase in tail flick latencies ([3]; after acetaminophen 300 mg/kg s.c.)	patients with fever of greater than 37.5° C. [5] [%]	body temperature shortly after ischemic stroke [6]	inhibition of COX-2 (COX-2)
Cc1noc(NS(=O)(=O)c2cccc3c(N(C)C)cccc23)c1C [BMS-182874]	did not affect BP and HR per se	significantly blocked															
CC(C)C[C@@H]1NC(=O)[C@@H](C(C)C)NC(=O)[C@@H]2CCCN2C(=O)[C@@H](CC(=O)O)NC(=O)[C@@H](Cc2c[nH]c3ccccc23)NC1=O [BQ123, cyclo (-D-Trp-D-Asp-Pro-D-Val-Leu-)] (cyclo(L[dW][dD]P[dV]))			more than six	significantly potentiated	did not produce any significant change in body temperature	neither acetaminophen nor BQ123 produced any acute effect on body weight	not affected	did not produce any significant effect on tail flick latency									
CC(=O)Nc1ccc(O)cc1 [acetaminophen]					produced a significant hypothermia			produced significant analgesia	weakly	about three	small reduction in CBT	markedly	more than 10 seconds	three	5.0	small, but potentially beneficial, decrease in body temperature	weakly
